# Data: article PMC9851200, “Multiparameter phenotypic screening for endogenous TFEB and TFE3 translocation identifies novel chemical series modulating lysosome function” (Autophagy, 2022)
# Entries after “also recorded” stand apart in the source; their conditions may differ. Read-outs that look alike come from different tables or passages of the source.
# Tests used:
# ACVR1B = target: T1, ACVR1B (Homo sapiens, UniProt P36896); details: cited from earlier work
# T1 sequence (P36896 24-505): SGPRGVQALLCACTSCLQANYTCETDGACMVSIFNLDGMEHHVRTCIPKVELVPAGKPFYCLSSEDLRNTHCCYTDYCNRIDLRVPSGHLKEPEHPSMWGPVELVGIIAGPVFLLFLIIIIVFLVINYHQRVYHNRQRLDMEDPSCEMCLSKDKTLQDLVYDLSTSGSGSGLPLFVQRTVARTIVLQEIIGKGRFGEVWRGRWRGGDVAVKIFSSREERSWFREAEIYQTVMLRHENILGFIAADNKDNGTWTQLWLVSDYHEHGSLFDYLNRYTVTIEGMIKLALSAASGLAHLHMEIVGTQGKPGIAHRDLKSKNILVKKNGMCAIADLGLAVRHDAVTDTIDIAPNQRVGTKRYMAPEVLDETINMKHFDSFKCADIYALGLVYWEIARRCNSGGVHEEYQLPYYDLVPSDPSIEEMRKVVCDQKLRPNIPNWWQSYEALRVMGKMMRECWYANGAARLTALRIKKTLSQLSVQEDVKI
# MAPK9/JNK2 = MAPK9/JNK2 (Homo sapiens, UniProt P45984); details: cited from earlier work
# MAPK9/JNK2, sequence (P45984 whole entry): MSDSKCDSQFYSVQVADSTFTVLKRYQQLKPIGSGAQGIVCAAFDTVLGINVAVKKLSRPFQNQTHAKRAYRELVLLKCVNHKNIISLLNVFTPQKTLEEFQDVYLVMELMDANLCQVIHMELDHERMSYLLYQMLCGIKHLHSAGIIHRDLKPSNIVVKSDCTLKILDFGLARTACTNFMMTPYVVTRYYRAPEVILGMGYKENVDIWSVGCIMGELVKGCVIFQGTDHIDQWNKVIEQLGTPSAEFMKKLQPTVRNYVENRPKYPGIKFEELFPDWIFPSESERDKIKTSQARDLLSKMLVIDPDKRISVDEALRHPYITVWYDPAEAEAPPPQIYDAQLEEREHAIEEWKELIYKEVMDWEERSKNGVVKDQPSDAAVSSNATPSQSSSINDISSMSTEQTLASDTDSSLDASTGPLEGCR
# PIKFYVE = PIKFYVE (Homo sapiens, UniProt Q9Y2I7); details: cited from earlier work
# PIKFYVE, sequence (Q9Y2I7 whole entry): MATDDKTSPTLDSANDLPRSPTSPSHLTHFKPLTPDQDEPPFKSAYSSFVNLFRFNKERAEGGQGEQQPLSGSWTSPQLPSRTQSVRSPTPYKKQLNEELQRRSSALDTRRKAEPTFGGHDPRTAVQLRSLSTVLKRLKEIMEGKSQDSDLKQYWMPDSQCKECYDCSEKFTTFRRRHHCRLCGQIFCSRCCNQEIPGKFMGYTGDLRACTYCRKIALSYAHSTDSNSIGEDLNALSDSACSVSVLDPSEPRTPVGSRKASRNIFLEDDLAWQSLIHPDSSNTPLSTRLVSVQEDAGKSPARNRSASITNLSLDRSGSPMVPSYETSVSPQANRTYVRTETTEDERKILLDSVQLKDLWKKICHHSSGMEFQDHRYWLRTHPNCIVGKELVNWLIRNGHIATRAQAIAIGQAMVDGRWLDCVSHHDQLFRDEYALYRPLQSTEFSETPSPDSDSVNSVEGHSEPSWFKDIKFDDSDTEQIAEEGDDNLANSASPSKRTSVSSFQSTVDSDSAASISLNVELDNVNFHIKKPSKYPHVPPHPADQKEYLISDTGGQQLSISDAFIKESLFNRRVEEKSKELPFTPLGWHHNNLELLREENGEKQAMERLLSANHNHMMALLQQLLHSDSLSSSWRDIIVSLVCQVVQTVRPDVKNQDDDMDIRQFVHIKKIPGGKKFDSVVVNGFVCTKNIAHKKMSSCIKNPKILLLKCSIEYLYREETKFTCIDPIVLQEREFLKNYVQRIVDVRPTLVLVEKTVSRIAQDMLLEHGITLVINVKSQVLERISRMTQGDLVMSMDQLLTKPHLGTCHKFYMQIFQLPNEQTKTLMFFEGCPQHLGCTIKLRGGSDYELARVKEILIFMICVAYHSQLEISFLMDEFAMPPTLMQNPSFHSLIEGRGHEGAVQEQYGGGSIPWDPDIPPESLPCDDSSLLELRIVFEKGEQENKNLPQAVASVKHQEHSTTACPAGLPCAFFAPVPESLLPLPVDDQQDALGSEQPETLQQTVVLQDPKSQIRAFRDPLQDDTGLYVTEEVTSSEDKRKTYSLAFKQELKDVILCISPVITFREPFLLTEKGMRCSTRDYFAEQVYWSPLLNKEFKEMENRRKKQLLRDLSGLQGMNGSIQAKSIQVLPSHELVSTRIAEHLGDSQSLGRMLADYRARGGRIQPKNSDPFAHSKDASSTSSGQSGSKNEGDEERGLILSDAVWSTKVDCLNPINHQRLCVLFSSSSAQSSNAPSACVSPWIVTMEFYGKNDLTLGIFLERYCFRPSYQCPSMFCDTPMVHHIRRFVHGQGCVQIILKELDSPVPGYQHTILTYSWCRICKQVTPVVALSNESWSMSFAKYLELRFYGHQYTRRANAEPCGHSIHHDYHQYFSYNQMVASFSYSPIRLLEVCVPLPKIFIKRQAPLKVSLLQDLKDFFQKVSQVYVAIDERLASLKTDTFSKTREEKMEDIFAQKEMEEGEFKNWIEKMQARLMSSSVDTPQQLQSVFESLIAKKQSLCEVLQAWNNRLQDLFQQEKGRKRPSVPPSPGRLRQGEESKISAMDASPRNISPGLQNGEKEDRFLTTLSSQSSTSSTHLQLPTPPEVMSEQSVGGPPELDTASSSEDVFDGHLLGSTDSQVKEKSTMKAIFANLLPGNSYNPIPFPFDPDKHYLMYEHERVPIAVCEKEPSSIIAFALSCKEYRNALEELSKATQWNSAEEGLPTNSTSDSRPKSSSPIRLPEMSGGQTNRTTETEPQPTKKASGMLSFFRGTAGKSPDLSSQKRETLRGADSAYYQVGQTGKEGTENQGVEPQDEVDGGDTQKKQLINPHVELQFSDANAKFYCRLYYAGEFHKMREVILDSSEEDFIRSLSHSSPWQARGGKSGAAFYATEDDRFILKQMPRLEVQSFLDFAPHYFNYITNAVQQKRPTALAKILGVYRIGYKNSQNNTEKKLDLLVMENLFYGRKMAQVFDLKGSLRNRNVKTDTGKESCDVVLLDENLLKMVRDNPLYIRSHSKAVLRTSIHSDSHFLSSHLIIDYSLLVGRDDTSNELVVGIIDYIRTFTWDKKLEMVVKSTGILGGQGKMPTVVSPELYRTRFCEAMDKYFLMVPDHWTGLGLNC
# MINK1/MINK = MINK1/MINK (Homo sapiens, UniProt Q8N4C8); details: cited from earlier work
# endogenous TFE3 = experiment: TFE3 nuclear translocation, immunocytochemistry high-content imaging; format: cell-based; details: for Summary: activity in TFE3 assays compared with original NK-140, OT activity
# BMPR1B = BMPR1B (Homo sapiens, UniProt O00238); details: cited from earlier work
# TGFBR1 = target: T2, TGFBR1 (Homo sapiens, UniProt P36897); details: cited from earlier work
# T2 sequence (P36897 34-503): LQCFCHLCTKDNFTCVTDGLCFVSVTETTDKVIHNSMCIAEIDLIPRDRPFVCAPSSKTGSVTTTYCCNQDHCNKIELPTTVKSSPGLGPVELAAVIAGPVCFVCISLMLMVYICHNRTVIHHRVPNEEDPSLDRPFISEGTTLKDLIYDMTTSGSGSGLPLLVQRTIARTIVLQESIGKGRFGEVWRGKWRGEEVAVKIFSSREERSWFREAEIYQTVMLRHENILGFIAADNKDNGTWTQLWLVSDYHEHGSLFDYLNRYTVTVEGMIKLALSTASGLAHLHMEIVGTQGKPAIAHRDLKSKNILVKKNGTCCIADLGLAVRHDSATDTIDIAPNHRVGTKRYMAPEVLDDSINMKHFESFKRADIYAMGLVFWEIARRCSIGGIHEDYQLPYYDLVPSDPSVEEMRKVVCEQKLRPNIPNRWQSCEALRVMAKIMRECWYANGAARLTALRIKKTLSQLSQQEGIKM
# ALK5/TGFBR1 = details: cited from earlier work
# PRKD1 = target: T3, PRKD1 (Homo sapiens, UniProt Q15139); details: cited from earlier work
# T3 sequence (Q15139 1-912): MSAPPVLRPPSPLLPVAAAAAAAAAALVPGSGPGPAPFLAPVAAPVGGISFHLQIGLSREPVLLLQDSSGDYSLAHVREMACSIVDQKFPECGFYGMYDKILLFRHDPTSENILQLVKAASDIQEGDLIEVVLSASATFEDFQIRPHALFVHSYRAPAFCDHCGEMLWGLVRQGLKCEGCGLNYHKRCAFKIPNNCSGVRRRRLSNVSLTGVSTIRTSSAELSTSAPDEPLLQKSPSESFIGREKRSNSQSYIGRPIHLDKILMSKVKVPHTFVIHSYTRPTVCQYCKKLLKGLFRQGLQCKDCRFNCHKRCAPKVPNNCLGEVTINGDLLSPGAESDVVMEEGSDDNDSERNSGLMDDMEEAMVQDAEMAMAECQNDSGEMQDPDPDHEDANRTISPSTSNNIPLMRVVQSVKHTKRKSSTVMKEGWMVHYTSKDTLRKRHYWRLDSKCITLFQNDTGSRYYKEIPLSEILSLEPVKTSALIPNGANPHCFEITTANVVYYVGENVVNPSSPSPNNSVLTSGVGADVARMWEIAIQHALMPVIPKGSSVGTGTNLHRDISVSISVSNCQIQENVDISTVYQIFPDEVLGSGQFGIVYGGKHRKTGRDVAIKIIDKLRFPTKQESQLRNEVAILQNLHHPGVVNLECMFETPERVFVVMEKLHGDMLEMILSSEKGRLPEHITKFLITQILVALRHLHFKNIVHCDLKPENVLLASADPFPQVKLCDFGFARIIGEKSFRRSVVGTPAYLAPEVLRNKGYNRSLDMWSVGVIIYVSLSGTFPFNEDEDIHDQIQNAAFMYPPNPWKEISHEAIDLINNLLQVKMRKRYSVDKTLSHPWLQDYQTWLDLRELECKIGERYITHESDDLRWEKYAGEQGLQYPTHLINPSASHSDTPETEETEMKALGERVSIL
# CSNK1E = CSNK1E (Homo sapiens, UniProt P49674); details: cited from earlier work
# CSNK1E, sequence (P49674 whole entry): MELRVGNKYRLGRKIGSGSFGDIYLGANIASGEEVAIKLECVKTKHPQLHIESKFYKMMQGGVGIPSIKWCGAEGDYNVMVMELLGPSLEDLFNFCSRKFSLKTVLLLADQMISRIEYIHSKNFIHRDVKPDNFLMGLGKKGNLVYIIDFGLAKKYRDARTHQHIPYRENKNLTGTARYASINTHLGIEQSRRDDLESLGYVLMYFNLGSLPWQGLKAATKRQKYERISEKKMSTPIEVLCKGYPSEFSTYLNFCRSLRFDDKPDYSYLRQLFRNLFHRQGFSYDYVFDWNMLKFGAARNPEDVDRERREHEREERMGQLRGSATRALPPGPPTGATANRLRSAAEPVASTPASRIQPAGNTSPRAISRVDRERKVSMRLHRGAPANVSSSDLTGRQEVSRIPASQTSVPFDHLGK
# MAPK10/JNK3 = MAPK10/JNK3 (Homo sapiens, UniProt P53779); details: cited from earlier work
# MAPK10/JNK3, sequence (P53779 whole entry): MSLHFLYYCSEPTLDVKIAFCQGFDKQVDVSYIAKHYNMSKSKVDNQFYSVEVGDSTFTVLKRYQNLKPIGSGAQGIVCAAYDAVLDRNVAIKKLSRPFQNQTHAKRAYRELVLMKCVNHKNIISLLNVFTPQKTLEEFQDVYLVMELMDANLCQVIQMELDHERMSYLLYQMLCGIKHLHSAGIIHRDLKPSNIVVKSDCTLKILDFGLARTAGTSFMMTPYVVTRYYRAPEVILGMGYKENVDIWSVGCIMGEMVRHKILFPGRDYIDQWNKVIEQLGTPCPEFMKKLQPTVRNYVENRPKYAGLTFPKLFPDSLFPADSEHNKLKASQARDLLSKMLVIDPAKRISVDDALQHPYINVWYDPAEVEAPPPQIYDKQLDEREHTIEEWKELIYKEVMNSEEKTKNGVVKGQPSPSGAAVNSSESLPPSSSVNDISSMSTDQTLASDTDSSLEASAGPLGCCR
# STK10/LOK = STK10/LOK (Homo sapiens, UniProt O94804); details: cited from earlier work
# STK10/LOK, sequence (O94804 whole entry): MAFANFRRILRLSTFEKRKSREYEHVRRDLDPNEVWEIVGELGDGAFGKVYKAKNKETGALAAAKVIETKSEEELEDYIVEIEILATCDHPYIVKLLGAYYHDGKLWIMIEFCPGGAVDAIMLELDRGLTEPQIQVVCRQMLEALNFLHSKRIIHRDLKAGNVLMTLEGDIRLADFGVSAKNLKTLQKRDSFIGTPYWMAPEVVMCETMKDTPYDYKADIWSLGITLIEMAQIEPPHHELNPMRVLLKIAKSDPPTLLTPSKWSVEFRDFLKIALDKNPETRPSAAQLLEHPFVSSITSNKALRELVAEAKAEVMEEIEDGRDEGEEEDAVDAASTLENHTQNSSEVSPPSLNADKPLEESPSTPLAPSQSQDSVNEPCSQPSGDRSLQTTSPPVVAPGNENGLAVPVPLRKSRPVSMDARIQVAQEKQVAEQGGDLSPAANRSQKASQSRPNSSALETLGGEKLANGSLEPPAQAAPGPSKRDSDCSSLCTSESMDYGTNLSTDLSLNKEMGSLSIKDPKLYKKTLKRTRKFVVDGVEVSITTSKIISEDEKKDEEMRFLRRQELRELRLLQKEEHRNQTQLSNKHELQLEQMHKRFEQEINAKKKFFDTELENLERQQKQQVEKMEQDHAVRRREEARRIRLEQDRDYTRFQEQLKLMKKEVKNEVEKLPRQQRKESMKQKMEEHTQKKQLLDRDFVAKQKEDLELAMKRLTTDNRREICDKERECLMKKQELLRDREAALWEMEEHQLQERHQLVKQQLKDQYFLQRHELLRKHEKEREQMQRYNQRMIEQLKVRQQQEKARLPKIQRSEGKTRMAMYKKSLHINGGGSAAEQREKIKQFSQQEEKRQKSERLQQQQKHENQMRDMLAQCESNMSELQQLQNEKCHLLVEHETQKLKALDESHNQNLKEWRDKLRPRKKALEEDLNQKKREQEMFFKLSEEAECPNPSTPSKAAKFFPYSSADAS
# PKNB(M.tuberculosis) = PKNB(M.tuberculosis) (Mycobacterium tuberculosis, UniProt P9WI81); format: binding
# PKNB(M.tuberculosis), sequence (P9WI81 whole entry, looked up): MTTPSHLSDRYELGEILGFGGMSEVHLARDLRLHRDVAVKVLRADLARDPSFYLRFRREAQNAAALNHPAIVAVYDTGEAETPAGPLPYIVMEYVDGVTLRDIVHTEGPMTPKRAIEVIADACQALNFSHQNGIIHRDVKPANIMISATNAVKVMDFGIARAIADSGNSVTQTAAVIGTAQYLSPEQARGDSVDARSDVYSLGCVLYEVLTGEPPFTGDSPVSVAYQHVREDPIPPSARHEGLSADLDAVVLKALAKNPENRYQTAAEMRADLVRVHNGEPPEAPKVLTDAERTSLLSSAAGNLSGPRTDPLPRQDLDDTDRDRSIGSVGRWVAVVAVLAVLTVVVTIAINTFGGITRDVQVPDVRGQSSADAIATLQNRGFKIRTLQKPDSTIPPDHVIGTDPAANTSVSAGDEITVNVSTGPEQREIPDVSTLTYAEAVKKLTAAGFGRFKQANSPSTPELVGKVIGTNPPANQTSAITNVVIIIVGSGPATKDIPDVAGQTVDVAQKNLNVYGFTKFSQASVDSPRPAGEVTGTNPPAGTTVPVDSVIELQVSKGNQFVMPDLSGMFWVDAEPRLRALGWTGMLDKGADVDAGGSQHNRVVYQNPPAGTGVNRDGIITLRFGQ
# TFEB or TFE3 = experiment: EC50 line in the head of Table S5 (cellular activity of the analogs, assay not given); format: cell-based; details: assay not named, unit printed only in the first two cells
# Protocol: Figure S5. Activity of quinazoline analogs. […] Compounds were screen at 24-h treatment time up to 5 µM concentration. Data for each compound is represented on single graphs with their structures shown. n=1 for all above assays, mean±s.d. (B) Representative western blot of TFEB levels following treatment of compounds followed by fractionation into cytoplasmic (C) and nuclear (N) compartments. Successful fractionation represented by enrichment of GAPDH in the cytoplasmic fraction and LMNA (lamin A/C) in the nuclear compartment. (C) The levels of nuclear/cytoplasmic TFEB were quantified and presented as a ratio. A paired one-way ANOVA with a Holm-Šídák's multiple comparisons test was performed relative to DMSO for comparison between each compound treatments (n=3).
# From the text for SH-SY5Y cells: The PKIS2 Library was supplied by The Structural Genomics Consortium at the University of North Carolina at Chapel Hill.
compound,measurement,setting,value
Cc1cccc(-c2nc(Nc3ccc4nn[nH]c4c3)c3ccccc3n2)n1 [GW867587],DQ Intensity,"SH-SY5Y cells; PKIS2 primary screening, DQ Red BSA intensity",114.16
same,DQ Spot,"SH-SY5Y cells; PKIS2 primary screening, DQ Red BSA spot count",102.41
same,KINOMEscan binding ACVR1B,ACVR1B,0%
same,KINOMEscan binding MAPK9/JNK2,MAPK9/JNK2,0%
same,KINOMEscan binding PIKFYVE,PIKFYVE,13%
same,KINOMEscan binding MINK1/MINK,MINK1/MINK,0%
same,TFE3 %,endogenous TFE3; PKIS2 primary screening,12.03%
same,nTFE3 %,"endogenous TFE3; primary screen, 1 µM, 24 h, SH-SY5Y",12%
same,KINOMEscan binding BMPR1B,BMPR1B,0%
same,KINOMEscan binding TGFBR1,TGFBR1,32%
same,TGFBR1 binding,ALK5/TGFBR1,0.59 µM
same,KINOMEscan binding PRKD1,PRKD1,94.2%
same,KINOMEscan binding CSNK1E,CSNK1E,0%
same,KINOMEscan binding MAPK10/JNK3,MAPK10/JNK3,0%
same,KINOMEscan binding STK10/LOK,STK10/LOK,0%
Cc1cccc(-c2nc(Nc3ccc4nn(C)cc4c3)c3ccccc3n2)n1 [NK167],KINOMEscan PKNB(M.tuberculosis),PKNB(M.tuberculosis),12
same,EC50,"endogenous TFE3; TFE3 assay, 24 h, SH-SY5Y, second EC50 of biphasic/bell-shaped fit or OT (off-target) activity, unit inferred, read-out: Best-Fit Values EC50 (converted)",1.05 µM
same,EC50,"endogenous TFE3; TFE3 assay, 24 h, SH-SY5Y, µM, read-out: Best-Fit Values EC50 (converted)",1.04 µM
same,Summary,endogenous TFE3,"Weaker, Strong OT activity"
same,EC50,TFEB or TFE3,1 µM
Cc1cccc(-c2nc(N(C)c3ccc4ncsc4c3)c3ccccc3n2)n1 [NK-161],KINOMEscan PKNB(M.tuberculosis),PKNB(M.tuberculosis),9
same,EC50,TFEB or TFE3,1.1 µM
Cc1cccc(-c2nc(Nc3ccc4ncsc4c3)c3ccccc3n2)n1 [NK140],DQ Red BSA fluorescence intensity (in words),"SH-SY5Y cells; SH-SY5Y, 24 h treatment",no increases in DQ Red BSA intensity
same,DQ Red BSA intensity (in words),"SH-SY5Y cells; SH-SY5Y, 48 h treatment",additional increase in DQ Red BSA intensity
same,EC50,"endogenous TFE3; Homo sapiens, SH-SY5Y, 24 h treatment, estimated, read-out: Cellular EC50 against TFE3",0.65 µM
same,EC50,"endogenous TFE3; Homo sapiens, TFE3 assay, 24 h, SH-SY5Y, µM, read-out: Best-Fit Values EC50 (converted)",0.64 µM
same,TFE3 translocation (in words),"endogenous TFE3; SH-SY5Y, 24 h treatment",modest TFEB and TFE3 translocation
same,TFE3 translocation (in words),"endogenous TFE3; SH-SY5Y, 48 h treatment",induced; also recorded: elevated TFEB and TFE3 translocation
same,Best-Fit Values Span,"endogenous TFE3; TFE3 assay concentration response, 24 h, SH-SY5Y",37.55
same,Summary,endogenous TFE3,Original
same,EC50,TFEB or TFE3,0.65 µM
